Assay results from ChEMBL document CHEMBL5244236, “Antitumor activity and structure-activity relationship of heparanase inhibitors: Recent advances” (Eur J Med Chem, 2020).
Values belong to the molecule of their own block, whether it stands above or below them.

Assays:
[1] = Antiangiogenic activity in VEGF-stimulated human endothelial cells assessed as inhibition of cell growth and measured after 11 days by immunohistochemical staining based analysis; conditions: 264 h
[2] = target: T1, Heparanase (Homo sapiens, UniProt Q9Y251); assay: Inhibition of HPSE (unknown origin)
T1 sequence (Q9Y251 whole entry): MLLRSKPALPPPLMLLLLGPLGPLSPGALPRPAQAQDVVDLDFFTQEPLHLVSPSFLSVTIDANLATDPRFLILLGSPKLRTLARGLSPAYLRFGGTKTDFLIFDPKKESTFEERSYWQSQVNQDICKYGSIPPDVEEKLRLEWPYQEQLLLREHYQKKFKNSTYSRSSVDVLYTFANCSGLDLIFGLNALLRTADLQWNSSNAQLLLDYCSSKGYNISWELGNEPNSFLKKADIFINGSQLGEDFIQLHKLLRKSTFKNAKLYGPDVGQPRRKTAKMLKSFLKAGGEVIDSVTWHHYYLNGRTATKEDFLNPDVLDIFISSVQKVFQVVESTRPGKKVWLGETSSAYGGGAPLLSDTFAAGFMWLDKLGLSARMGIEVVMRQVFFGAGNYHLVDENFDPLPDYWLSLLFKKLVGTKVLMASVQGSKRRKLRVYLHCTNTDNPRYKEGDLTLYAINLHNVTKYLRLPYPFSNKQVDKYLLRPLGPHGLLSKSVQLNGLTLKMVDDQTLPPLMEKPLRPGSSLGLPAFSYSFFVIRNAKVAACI

[3] = test system: HT-1080; assay: Antimigratory activity against human HT-1080 cells assessed as inhibition of cell migration
[4] = test system: HT-1080; assay: Anti-invasive activity against human HT-1080 cells assessed as inhibition of cell invasive
[5] = target: T1, Heparanase; assay: Inhibition of human HPSE assessed as residual amount of heparin using porcine heparin as substrate preincubated for 5 mins followed by substrate addition and measured after 15 mins by spectrophotometric analysis
[6] = test system: B16-F10; assay: Inhibition of cell migration in mouse B16-F10 cells by wound healing assay
[7] = Antiproliferative activity against mouse Lewis lung carcinoma cell line assessed as reduction in cell proliferation by MTT assay; type: functional, cell-based
[8] = test system: HepG2; assay: Antiproliferative activity against human HepG2 assessed as reduction in cell proliferation by MTT assay; type: functional, cell-based
[9] = Anti-invasive activity against mouse Lewis lung carcinoma cell line assessed as inhibition of cell invasion incubated for 24 hrs by transwell assay; type: functional, cell-based
[10] = test system: HepG2; assay: Anti-invasive activity against human HepG2 assessed as inhibition of cell invasion incubated for 48 hrs by transwell assay; type: functional, cell-based; conditions: HepG2, 48 h
[11] = Antimigratory activity against mouse Lewis lung carcinoma cell line assessed as inhibition of cell migration incubated for 24 hrs by Wound healing assay; type: functional, cell-based
[12] = test system: HepG2; assay: Antimigratory activity against human HepG2 assessed as inhibition of cell migration incubated for 48 hrs by Wound healing assay; type: functional, cell-based; conditions: HepG2, 48 h
[13] = Antiangiogenic activity in bFGF-stimulated human microvascular endothelial cells assessed as inhibition of cell growth incubated for 72 hrs; type: functional, cell-based, Cardiac microvascular endothelial cell

SMILES: O=C(O)c1ccc2c(c1)C(=O)N(c1cccc(-c3nc4ccccc4o3)c1)C2=O
IC50 [1]: 40 µM

SMILES: CCCCCCCCCCCCCCCC(=O)C1=C(OCc2ccccc2)[C@@H](CO)OC1=O
IC50 [3]: 3000 nM | IC50 [4]: 3000 nM

SMILES: CCCCCCCCCCCCCCCc1cc(O[C@@H]2O[C@H](C(=O)O)[C@@H](O)[C@H](O)[C@H]2O)cc(O)c1C(=O)Oc1cc(C)c(C(=O)O)c(O)c1
IC50 [5]: 3 µM | IC50 [6]: 15 µM

SMILES: CCCCCCCCCCCCCCCc1cc(O[C@@H]2O[C@H](C(=O)OC)[C@@H](O)[C@H](O)[C@H]2O)cc(O)c1C(=O)Oc1cc(C)c(C(=O)O)c(O)c1
IC50 [6]: 30 µM

SMILES: Oc1c(I)cc(I)cc1-c1nn2c(-c3ccccc3)nnc2s1
IC50 [7]: 11.9 µM | IC50 [8]: 8.3 µM | IC50 [9]: 5 µM | IC50 [10]: 5 µM | IC50 [11]: 5 µM | IC50 [12]: 5 µM

SMILES: Cc1ccc(C(=O)Nc2ccc(S(=O)(=O)O)c3cc(S(=O)(=O)O)cc(S(=O)(=O)O)c23)cc1NC(=O)c1cccc(NC(=O)Nc2cccc(C(=O)Nc3cc(C(=O)Nc4ccc(S(=O)(=O)O)c5cc(S(=O)(=O)O)cc(S(=O)(=O)O)c45)ccc3C)c2)c1 [SURAMIN]
IC50 [13]: 538 nM

Further lines, results first:

IC50 [2]: > 100 µM
SMILES: CCCCCCCCCCCCCCCC(=O)C1=C(OC)[C@@H](CO)OC1=O

IC50 [2]: > 100 µM
SMILES: CCCCCCCCCCCCCCCC(=O)C1=C(OC(C)C)[C@@H](CO)OC1=O
